# According to patent publication US20230000876A1, “TREATING CANCERS WITH A CYCLIN-DEPENDENT KINASE INHIBITOR” (Nuvation Bio Inc., priority 2021, published 2023):
# Legend:
# xBT474 breast tumor = xBT474 breast tumor model (ER-negative/HER2-positive); settings: Group 3: Tucatinib 25 mg/kg PO QD*28 days
# xMDA-MB-361 breast tumor = xMDA-MB-361 breast tumor model (ER-positive/HER2-positive); assay type: in vivo, female BALB/c nude mice; settings: Group 3: Tucatinib 60 mg/kg PO QD*42 days
# Description: Trastuzumab, tucatinib, Compound (I), and fulvestrant were tested in a xMDA-MB-361 breast tumor model (ER-positive/HER2-positive) on female BALB/c nude mice.
# VCap prostate cancer = assay: Non-castrated VCap prostate cancer model; assay type: in vivo, male CB17/Scid mice; settings: Group 7: Abiraterone 350 mg/kg p.o. QD * 26 days
# Description: Compound (I), enzalutamide, and abiraterone were tested in non-castrated VCap prostate cancer model in male CB17/Scid mice.
# All treatment groups reduced mean tumor volume.
compound,measurement,setting,value
Cc1cc(Nc2ncnc3ccc(NC4=NC(C)(C)CO4)cc23)ccc1Oc1ccn2ncnc2c1 [Tucatinib],Tumor volume (mean ± SEM),xBT474 breast tumor; Day 0,146 ± 10 mm^3
same,Tumor volume (mean ± SEM),xBT474 breast tumor; Day 4,177 ± 11 mm^3
same,Tumor volume (mean ± SEM),xBT474 breast tumor; Day 7,199 ± 19 mm^3
same,Tumor volume (mean ± SEM),xBT474 breast tumor; Day 11,168 ± 16 mm^3
same,Tumor volume (mean ± SEM),xBT474 breast tumor; Day 14,169 ± 15 mm^3
same,Tumor volume (mean ± SEM),xBT474 breast tumor; Day 18,234 ± 28 mm^3
same,Tumor volume (mean ± SEM),xBT474 breast tumor; Day 21,288 ± 35 mm^3
same,Tumor volume (mean ± SEM),xBT474 breast tumor; Day 25,341 ± 47 mm^3
same,Tumor volume (mean ± SEM),xBT474 breast tumor; Day 28,397 ± 68 mm^3
same,Tumor volume (mean ± SEM),xBT474 breast tumor; Day 32,406 ± 96 mm^3
same,Tumor volume (mean ± SEM),xBT474 breast tumor; Day 35,488 ± 112 mm^3
same,Tumor volume (mean ± SEM),xBT474 breast tumor; Day 39,420 ± 91 mm^3
same,Tumor volume (mean ± SEM),xBT474 breast tumor; Day 42,431 ± 89 mm^3
same,Tumor volume (mean ± SEM),xBT474 breast tumor; Day 46,421 ± 81 mm^3
same,Tumor volume (mean ± SEM),xMDA-MB-361 breast tumor; Day 0,157 ± 11 mm^3
same,Tumor volume (mean ± SEM),xMDA-MB-361 breast tumor; Day 3,148 ± 11 mm^3
same,Tumor volume (mean ± SEM),xMDA-MB-361 breast tumor; Day 7,156 ± 20 mm^3
same,Tumor volume (mean ± SEM),xMDA-MB-361 breast tumor; Day 10,219 ± 30 mm^3
same,Tumor volume (mean ± SEM),xMDA-MB-361 breast tumor; Day 14,408 ± 59 mm^3
same,Tumor volume (mean ± SEM),xMDA-MB-361 breast tumor; Day 17,658 ± 112 mm^3
same,Tumor volume (mean ± SEM),xMDA-MB-361 breast tumor; Day 21,970 ± 206 mm^3
same,Tumor volume (mean ± SEM),xMDA-MB-361 breast tumor; Day 24,1185 ± 222 mm^3
same,Tumor volume (mean ± SEM),xMDA-MB-361 breast tumor; Day 28,1496 ± 250 mm^3
same,Tumor volume (mean ± SEM),xMDA-MB-361 breast tumor; Day 31,1707 ± 309 mm^3
same,Tumor volume (mean ± SEM),xMDA-MB-361 breast tumor; Day 35,1580 ± 240 mm^3
same,Tumor volume (mean ± SEM),xMDA-MB-361 breast tumor; Day 38,1675 ± 283 mm^3
same,Tumor volume (mean ± SEM),xMDA-MB-361 breast tumor; Day 42,1670 ± 344 mm^3
"C[C@]12CC[C@H](O)CC1=CC[C@@H]1[C@@H]2CC[C@]2(C)C(c3cccnc3)=CC[C@@H]12 [Abiraterone, abiraterone, reference compound]",Tumor volume (mean ± SEM),VCap prostate cancer; Day 0,171.7 ± 5.9 mm^3
same,Tumor volume (mean ± SEM),VCap prostate cancer; Day 4,278 ± 22.9 mm^3
same,Tumor volume (mean ± SEM),VCap prostate cancer; Day 7,365.9 ± 35.9 mm^3
same,Tumor volume (mean ± SEM),VCap prostate cancer; Day 11,582.6 ± 43.3 mm^3
same,Tumor volume (mean ± SEM),VCap prostate cancer; Day 14,762.2 ± 73.7 mm^3
same,Tumor volume (mean ± SEM),VCap prostate cancer; Day 18,985.6 ± 86.7 mm^3
same,Tumor volume (mean ± SEM),VCap prostate cancer; Day 21,1056.1 ± 83.2 mm^3
same,Tumor volume (mean ± SEM),VCap prostate cancer; Day 25,1184.9 ± 82.6 mm^3
